For 75 compounds, IC50 results are on record in US20240124445A1, “BENZENE RING COMPOUND AND USE THEREOF” (NANJING SHIJIANG MEDICINE TECHNOLOGY CO., LTD, priority 2020, published 2024).

The subject of one assay is NCI-H82 cell. The experiment in a line: Cell viability (Promega CellTiter-Glo) of NCI-H82 cell. It is filed as cell-based. The note with it: Homo sapiens, NCI-H82. As to the method:
Cell viability was detected using the Promega CellTiter-Glo kit, the kit reflected cell viability by directly measuring intracellular ATP content. Small cell lung cancer cell NCI-H82 (ATCC, No. HTB-175) was cultured in 10% fetal bovine serum-containing RPMI1640 medium (+P/S).
Cell viability was detected using the Promega CellTiter-Glo kit, the kit reflected cell viability by directly measuring intracellular ATP content.
Daoy cell was cultured in 10% fetal bovine serum-containing DMEM medium (+P/S), and NCI-H82 cell was cultured in 10% fetal bovine serum-containing RPMI1640 medium (+P/S).
Cell viability was detected using the Promega CellTiter-Glo kit, the kit reflected cell viability by directly measuring intracellular ATP content. In the experiment, the IC50 value of different compounds on different tumor cell lines was detected to determine cell lines that were sensitive or insensitive to different compounds.
Tumor cells were cultured in 10% FBS-containing medium (+p/s), and incubated for 3 h or the following day, then the gradient diluted compound was added. After 3 days of culture, the relevant IC50 (50% inhibiting concentration) was measured. The name, source and culture conditions of each tumor cell line were as follows:
Cell line NCI-H82 (ATCC, No. HTB-175) was cultured in 10% fetal bovine serum-containing RPMI1640 medium (+P/S).
For orientation: Cellular ATP, detected with luciferase, serves as a proxy for viable cell number.
In turn, `O=C(C[n+]1ccc2[nH]c(Cc3ccccc3)cc2c1)c1ccc(Cl)cc1` [AB24827A] came in with an IC50 of 2890 nM.

In turn, `O=C(C[n+]1ccc2c(Cc3ccccc3)c[nH]c2c1)c1ccc(Cl)cc1` [AB24835A] gave an IC50 of 2750 nM.

In the case of `O=C(C[n+]1ccc2cc(-c3ccccc3)[nH]c2c1)c1ccc(Cl)cc1` [AB24831A], half-maximal inhibition (IC50) was put at 5410 nM.

On to `O=C(C[n+]1ccc2c(Cc3ccccc3)c[nH]c2c1)c1ccc([N+](=O)[O-])cc1` [AB24863], for which the IC50 came to 3610 nM.

The compound `O=C(C[n+]1ccc2cc(Cc3ccccc3)[nH]c2c1)c1ccc(Cl)cc1` [AB24828A] gave an IC50 of 5790 nM.

The compound `Cc1ccc(C(=O)C[n+]2ccc3ccn(Cc4ccccc4)c3c2)cc1` [AB24945] returned an IC50 of 4220 nM.

The same assay, now with this note: Homo sapiens; NCI-H82 cell, Table 1; read-out: IC50.
With `O=C(Nc1ccc([N+](=O)[O-])cc1)c1ccc(NCc2ccccc2)cc1` [AB24883], the IC50 is 6370 nM.

`O=C(C[n+]1ccc2c(ccn2Cc2ccccc2)c1)c1cccc(Cl)c1` [AB24991]: the IC50 worked out at 340 nM.

On to `CC(Nc1cc[n+](CC(=O)c2ccc(Cl)cc2)cc1)c1ccccc1` (stereo not drawn) [AB24814], for which the IC50 amounted to 5540 nM.

Regarding `CC(C)c1c[nH]c2c[n+](CC(=O)c3cccc(Cl)c3)ccc12` [AB24938], the IC50 worked out at 3960 nM.

`CC(c1ccccc1)n1ccc2c[n+](C3CCc4ccc(Cl)cc4C3=O)ccc21` (stereo not drawn) [AB27165]: the IC50 came to 410 nM.

In the case of `Cc1ccc(C(=O)C[n+]2ccc3c(c2)ncn3Cc2ccccc2)cc1` [AB24885], the IC50 was 3130 nM.

On to `COc1cccc2c1CCC([n+]1ccc(NCc3ccccc3)cc1)C2=O` (stereo not drawn) [AB24954], for which the IC50 is 390 nM.

Take `O=C(C[n+]1ccc2[nH]c(Cc3ccccc3)cc2c1)c1ccc(C(F)(F)F)cc1` [AB27114]: the IC50 stood at 3930 nM.

As for `Cn1ccc2c[n+](C3CCc4ccc(OC(F)(F)F)cc4C3=O)ccc21` (stereo not drawn) [AB27154], the IC50 was 870 nM.

Consider `Cc1ccccc1C(=O)C[n+]1ccc2c(Cc3ccccc3)c[nH]c2c1` [AB24861], for which the IC50 is 4090 nM.

Turning to `O=C1c2ccc(C(F)(F)F)cc2CCC1[n+]1ccc2c(c1)CCC(c1ccccc1)N2` (stereo not drawn) [AB27104], the IC50 is 720 nM.

For the compound `COc1ccc(C(=O)C[n+]2ccc(NCc3ccccc3)cc2)cc1` [AB24803A], the IC50 was determined as 230 nM.

Turning to `O=C(C[n+]1ccc2c(ccn2Cc2ccccc2)c1)c1ccc(C(F)(F)F)cc1` [AB24987], the IC50 was 2000 nM.

For `Cc1ccc2c(c1)C(=O)C([n+]1ccc3c(ccn3C(C)c3ccccc3)c1)CC2` (stereo not drawn) [AB27163], the IC50 turned out to be 150 nM.

Turning to `O=C(C[n+]1ccc2c(c1)CC(c1ccccc1)N2)c1ccc(OC(F)(F)F)cc1` (stereo not drawn) [AB24999], the IC50 amounted to 1300 nM.

Turning to `Cc1ccc(C(=O)C[n+]2ccc3c(Cc4cccc(Cl)c4)c[nH]c3c2)cc1` [AB24854], the IC50 is 1570 nM.

In the case of `CC(c1ccccc1)n1ccc2c[n+](C3CCc4ccc(C(F)(F)F)cc4C3=O)ccc21` (stereo not drawn) [AB27161], the IC50 is 280 nM.

As to `O=C(C[n+]1ccc2c(c1)C=CCC(c1ccccc1)N2)c1ccc(Cl)cc1` (stereo not drawn) [AB24839B], the IC50 was 9130 nM.

As for `CCn1ccc2c[n+](C3CCc4ccc(OC(F)(F)F)cc4C3=O)ccc21` (stereo not drawn) [AB27155], the IC50 is 650 nM.

Take `Cc1ccc(C(=O)C[n+]2ccc3c(ccn3Cc3ccccc3)c2)cc1` [AB24887]: the IC50 was 290 nM.

For the compound `Cc1ccc2c(c1)CCC([n+]1ccc(NCc3ccccc3)cc1)C2=O` (stereo not drawn) [AB24917], the IC50 stood at 120 nM.

With `Cc1ccc2c(c1)C(=O)C([n+]1ccc3c(c1)c(C)cn3Cc1ccccc1)CC2` (stereo not drawn) [AB27176], the IC50 was found to be 40 nM.

`O=C1c2cc(F)ccc2CCC1[n+]1ccc(NCc2ccccc2)cc1` (stereo not drawn) [AB24948]: the IC50 was 100 nM.

As for `Cc1ccc2c(c1)C(=O)C([n+]1ccc3c(c1)CCC(c1ccccc1)N3)CC2` (stereo not drawn) [AB27133], the IC50 was 340 nM.

Consider `O=C1c2ccc(C(F)(F)F)cc2CCC1[n+]1ccc2c(ccn2Cc2ccccc2)c1` (stereo not drawn) [AB24996], for which the IC50 amounted to 1350 nM.

For the compound `Cc1cc2c[n+](C3CCc4ccc(Cl)cc4C3=O)ccc2n1Cc1ccccc1` (stereo not drawn) [AB27129], the IC50 stood at 260 nM.

Regarding `CC(=O)N(Cc1ccccc1)c1cc[n+](CC(=O)c2ccc(C)cc2)cc1` [AB27166], the IC50 came to 160 nM.

Consider `Cc1cnc(C(=O)C[n+]2ccc(NCc3ccccc3)cc2)cn1` [AB24821], for which the concentration for half-maximal inhibition (IC50) came to 7170 nM.

For the compound `O=C1c2ccc(F)cc2CCC1[n+]1ccc(NCc2ccccc2)cc1` (stereo not drawn) [AB24949], the IC50 worked out at 680 nM.

On to `Cc1cccc2c1C(=O)C([n+]1ccc(NCc3ccccc3)cc1)C2` (stereo not drawn) [AB24904], for which the IC50 came to 3220 nM.

`O=C1c2ncccc2CCC1[n+]1ccc(NCc2ccccc2)cc1` (stereo not drawn) [AB24923]: the IC50 stood at 6850 nM.

For the compound `CC(c1ccccc1)n1ccc2c[n+](C3CCc4ccc(OC(F)(F)F)cc4C3=O)ccc21` (stereo not drawn) [AB27162], the IC50 worked out at 240 nM.

Regarding `Cc1cn(Cc2ccccc2)c2cc[n+](C3CCc4ccc(C(F)(F)F)cc4C3=O)cc12` (stereo not drawn) [AB27174], the IC50 was found to be 100 nM.

As for `Cc1ccc2c(c1)C(=O)C([n+]1ccc(NCc3ccccc3)cc1)C2` (stereo not drawn) [AB24905], the IC50 turned out to be 2520 nM.

As to `O=C(C[n+]1ccc2c(Cc3ccccc3)c[nH]c2c1)c1ccc(OC(F)(F)F)cc1` [AB27107], the IC50 stood at 2180 nM.

With `O=C(C[n+]1ccc2c(-c3ccccc3)n[nH]c2c1)c1cccc([N+](=O)[O-])c1` [AB24898], the IC50 amounted to 6280 nM.

`Cc1ccc(C(=O)C[n+]2ccc(N3Cc4ccccc4C3)cc2)cc1` [AB24956]: the IC50 stood at 770 nM.

Turning to `O=C(C[n+]1ccc(NCc2ccccn2)cc1)c1ccc(Cl)cc1` [AB24822], the IC50 amounted to 6700 nM.

Turning to `O=C1c2cnccc2CCC1[n+]1ccc(NCc2ccccc2)cc1` (stereo not drawn) [AB24924], the IC50 came out at 3960 nM.

Regarding `Cc1ccc(C(=O)C[n+]2csc(NCc3ccccc3)c2)cc1` [AB24851], the IC50 worked out at 6570 nM.

On to `CC(C)(C(=O)c1ccc(Cl)cc1)[n+]1ccc(NCc2ccccc2)cc1` [AB24813], for which the IC50 stood at 5930 nM.

For the compound `Cc1ccc(C(=O)Cn2cnc(/C=C/c3ccccc3)c2)cc1` [AB24850], the IC50 worked out at 5780 nM.

With `O=C1c2ccc(OC(F)(F)F)cc2CCC1[n+]1ccc(NCc2ccccc2)cc1` (stereo not drawn) [AB27111], the IC50 came out at 850 nM.

On to `O=C(C[n+]1ccc(NCc2ccccc2)nc1)c1cccc(OC(F)(F)F)c1` [AB24967], for which the IC50 was 3880 nM.

Consider `Cn1ccc2c[n+](C3CCc4ccc(C(F)(F)F)cc4C3=O)ccc21` (stereo not drawn) [AB27148], for which the IC50 came out at 2810 nM.

For `Cc1ccc2c(c1)CCC([n+]1ccc(NCc3ccccc3)nc1)C2=O` (stereo not drawn) [AB24961], the IC50 turned out to be 540 nM.

On to `O=C1c2cc(OC(F)(F)F)ccc2CCC1[n+]1ccc2c(ccn2C2CC2)c1` (stereo not drawn) [AB27158], for which the IC50 was determined as 550 nM.

Consider `Cc1ccc(C(=O)C[n+]2ccc3c(-c4cccc(C)c4)c[nH]c3c2)cc1` [AB24872], for which the IC50 was 1240 nM.

In the case of `Cc1ccc(C(=O)C[n+]2ccc(N3CCc4ccccc4C3)cc2)cc1` [AB24957], the IC50 is 1060 nM.

Regarding `Cc1ccc(C(=O)C[n+]2ccc(N(C)Cc3ccccc3)cc2)cc1` [AB24955], the IC50 is 2800 nM.

In the case of `Cc1ccc(C(=O)C[n+]2ccc3c(ccn3-c3ccccc3)c2)cc1` [AB24895], the IC50 was found to be 2090 nM.

On to `O=C(C[n+]1ccc2c(-c3ccccc3)c[nH]c2c1)c1cccc([N+](=O)[O-])c1` [AB24878], for which the IC50 worked out at 3580 nM.

As to `CCn1ccc2c[n+](C3CCc4ccc(C(F)(F)F)cc4C3=O)ccc21` (stereo not drawn) [AB27149], the IC50 worked out at 1980 nM.

`Cc1ccc(C(=O)C[n+]2ccc(NCc3ccccc3)c(C)c2)cc1` [AB27169]: the IC50 worked out at 320 nM.

As to `O=C(C[n+]1ccc(NCc2ccccc2)cc1)c1ccc(Cl)nc1` [AB24817], the IC50 came to 4610 nM.

As to `O=C1c2cc([N+](=O)[O-])ccc2CCC1[n+]1ccc(NCc2ccccc2)cc1` (stereo not drawn) [AB24920], the IC50 is 1010 nM.

Regarding `O=C(C[n+]1ccc2c(c1)CCC(c1ccccc1)N2)c1ccc(Cl)cc1` (stereo not drawn) [AB24838], the IC50 amounted to 710 nM.

Regarding `O=C(C[n+]1ccc2c(ccn2Cc2ccccc2)c1)c1cccc([N+](=O)[O-])c1` [AB24888], the IC50 was 850 nM.

As to `Cc1ccc2c(c1)CCC([n+]1ccc3c(ccn3C(C)c3ccccc3)c1)C2=O` (stereo not drawn) [AB27184], the IC50 came out at 230 nM.

As to `Cc1ccc2c(c1)CC([n+]1ccc(NCc3ccccc3)cc1)C2=O` (stereo not drawn) [AB24906], the half-inhibitory concentration (IC50) worked out at 1660 nM.

As to `O=C(C[n+]1ccc2c(ccn2Cc2ccccc2)c1)c1ccc(OC(F)(F)F)cc1` [AB24988], the IC50 is 920 nM.

`Cc1ccc(Cc2c[nH]c3c[n+](CC(=O)c4ccc(C(F)(F)F)cc4)ccc23)cc1` [AB27118]: the IC50 was 1720 nM.

As for `O=C(C[n+]1ccc2c(Cc3ccccc3)c[nH]c2c1)c1ccc(C(F)(F)F)cc1` [AB27106], the half-inhibitory concentration (IC50) is 1620 nM.

As for `Nc1cccc(C(=O)C[n+]2ccc(NCc3ccccc3)cc2)c1` [AB24983], the IC50 was 3400 nM.

As to `Cc1ccc(C(=O)C[n+]2ccc3c(Cc4ccccc4)c[nH]c3c2)cc1` [AB24859], the IC50 was determined as 2290 nM.

Take `Cc1ccc(C(=O)C[n+]2ccc(N3CCc4ccccc4C3=O)cc2)cc1` [AB24959]: the IC50 amounted to 4110 nM.

Turning to `CCCn1ccc2c[n+](C3CCc4ccc(OC(F)(F)F)cc4C3=O)ccc21` (stereo not drawn) [AB27145], the IC50 was 250 nM.

On to `Cc1ccc2c(c1)C(=O)C([n+]1ccc(NCc3ccccc3)cc1)CC2` (stereo not drawn) [AB24916], for which the IC50 stood at 380 nM.

Take `COc1ccc(C(=O)C[n+]2ccc(NCc3ccccc3)nc2)cc1` [AB24963]: the IC50 was 330 nM.

For orientation: IC50 means the concentration at which inhibition is half-maximal.
